Assay results published in publication PMC6134404 (Organic & biomolecular chemistry, 2018).

Tests used:
OxaC [1] = molecular target: T1, OxaC (Penicillium oxalicum, UniProt A0A1B2TT09); experiment: X-ray crystal structure, […] Å; assay type: binding
OxaC [2] = molecular target: T1, OxaC; experiment: X-ray crystal structure, […] Å; assay type: binding; remark: listed apart in the source
[3] = system: C=CC(C)(C)[C@@]12C=C(O)C(=O)N3/C(=C/c4cnc[nH]4)C(=O)N[C@]31N(OC)c1ccccc12; experiment: HPLC initial-velocity assay, Michaelis-Menten fit; assay type: biochemical, Penicillium oxalicum; settings: 0.9 nM OxaC, 0.5 mM SAM, 50 mM Na/K phosphate pH 8.0, 23 °C
crystal structure = molecular target: the molecule itself; experiment: crystal structure

Nc1ncnc2c1ncn2[C@@H]1O[C@H](CSCC[C@H](N)C(=O)O)[C@@H](O)[C@H]1O [S-adenosyl-L-homocysteine]
X-ray crystal structure, 2.50 Å (OxaC [1]; SAM site, product complex with oxaline): a product complex containing SAH and oxaline

C=CC(C)(C)[C@@]12C=C(O)C(=O)N3/C(=C/c4cnc[nH]4)C(=O)N[C@]31N(OC)c1ccccc12 [compound 2, meleagrin]
X-ray crystal structure, 2.95 Å (OxaC [2]; pseudo-Michaelis complex with sinefungin): a pseudo-Michaelis complex composed of the SAM analog sinefungin and the natural substrate meleagrin

C=CC(C)(C)[C@]12C=C(OC)C(=O)N3/C(=C/c4cnc[nH]4)C(=O)N[C@@]31N(OC)c1ccccc12 [compound 3, oxaline]
X-ray crystal structure, 2.50 Å (OxaC [1]; product complex with SAH, co-crystallised with meleagrin and SAM): a product complex containing SAH and oxaline

Nc1ncnc2c1ncn2[C@@H]1O[C@H](C[C@@H](N)CC[C@H](N)C(=O)O)[C@@H](O)[C@H]1O [sinefungin]
X-ray crystal structure, 2.95 Å (OxaC [2]; SAM site, complex with meleagrin): a pseudo-Michaelis complex composed of the SAM analog sinefungin and the natural substrate meleagrin

OxaC (Penicillium oxalicum)
Km [3]: 3.1 ± 0.9 µM
kcat [3]: 1.3 ± 0.2 s⁻¹
kcat/Km [3]: 420000 M⁻¹ s⁻¹

B1: OxaC (enzyme)
chain: MGSSHHHHHHHHGASENLYFQGASMTFSNADAQKIAVQKDVDEVVAAAQRFLHGSGNATSDEAKVDLQKKASNLVQTIRGPIPAALSSMEDIVKVASLRTLFEAGVFHAMPKGGASMTASEISAQTGLDKGILIRLMRAVTPLGPFHEVGEEEYAHTPFSEAYLTADIAGCFPVMSNFIFGPVLQICDFLRQNNWKDAITTRNNPFTLAHNCPGETMFEHLYKNSKNVAPVTKAEAADVDQIAMDLYPWEERLSDAKGSNATLVDIAGSHGNGTRAIMALAPKLNGCRFIVQDLEPVIGEHSQALRAEGIEPQVYDFLKQEQPVHGASIYYFRRVFHDWPDLPEGKKILDNTRAAMSREHSRILIHDIIVPEIGATMSHAWQDLSLMAIGGMERTEKDFARLLDIAGLALVKVWRKPGDMMGIIEARLK
stoichiometry N (crystal structure): 2
